PubChem BioAssay (NCI)
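Interpolation was linear, between the two tested concentrations surrounding the appropriate level; five concentrations were tested over 48 hours in 96-well plates. TGI marks complete inhibition of growth.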

Legend:
Test in all cases: inhibition of tumour cell growth, NCI panel, 48 h
[1] = system: A549 NSCLC
[2] = system: SK-MEL-2 melanoma
[3] = system: NCI-H522 lung
[4] = system: T-47D breast
[5] = system: OVCAR-3 ovarian
[6] = system: RPMI-8226 leukemia
[7] = system: 786-0 renal
[8] = system: UO-31 renal
[9] = system: CCRF-CEM leukemia
[10] = system: RXF 393 renal
[11] = system: HT29 colon
[12] = system: U251 CNS
[13] = system: HL-60(TB) leukemia
[14] = system: SK-MEL-5 melanoma
[15] = system: DU-145 prostate
[16] = system: SNB-75 CNS
[17] = system: COLO 205 colon
[18] = system: OVCAR-5 ovarian
[19] = system: SR leukemia
[20] = system: MDA-MB-435
[21] = system: OVCAR-4 ovarian
[22] = system: K-562 leukemia
[23] = system: SN12C renal
[24] = system: HS 578T breast
[25] = system: UACC-257 melanoma
[26] = system: HOP-92 NSCLC
[27] = system: OVCAR-8 ovarian
[28] = system: A498 renal
[29] = system: CAKI-1 renal
[30] = system: MOLT-4 leukemia
[31] = system: IGROV1 ovarian
[32] = system: HOP-62 NSCLC
[33] = system: PC-3 prostate
[34] = system: SK-MEL-28 melanoma
[35] = system: ACHN renal
[36] = system: KM12 colon
[37] = system: MCF7 breast
[38] = system: HCT-15 colon
[39] = system: TK-10 renal
[40] = system: SW-620 colon
[41] = system: EKVX NSCLC
[42] = system: UACC-62 melanoma
[43] = system: HCC-2998 colon
[44] = system: MALME-3M melanoma
[45] = system: SF-295 CNS
[46] = system: SNB-19 CNS
[47] = system: M14 melanoma
[48] = system: HCT-116 colon
[49] = system: NCI-H23 lung
[50] = system: SK-OV-3 ovarian
[51] = system: LOX IMVI melanoma
[52] = system: NCI-H460 lung
[53] = system: MDA-N
[54] = system: NCI/ADR-RES ovarian
[55] = system: MDA-MB-231 breast
[56] = system: NCI-H226 lung
[57] = system: SF-539 CNS

## CN(CCc1ccccn1)C(=S)N/N=C(\c1ccccc1)c1ccccn1
[1]
  TGI: 8.42 µM
[2]
  TGI: 4.35 µM
[3]
  TGI: 5.22 µM
[4]
  TGI: 4.82 µM
[5]
  TGI: 10.4 µM
[6]
  TGI: 2140 nM
[7]
  TGI: 2680 nM
[8]
  TGI: 1830 nM
[9]
  TGI: > 100 µM
[10]
  TGI: 2830 nM
[11]
  TGI: 2770 nM
[12]
  TGI: > 36.6 µM
[13]
  TGI: > 100 µM
[14]
  TGI: 6.65 µM
[15]
  TGI: 5.66 µM
[16]
  TGI: 4.25 µM
[17]
  TGI: 17.3 µM
[18]
  TGI: 7.88 µM
[19]
  TGI: 15.9 µM
[20]
  TGI: 8.09 µM
[21]
  TGI: 2230 nM
[22]
  TGI: > 100 µM
[23]
  TGI: 15 µM
[24]
  TGI: > 26.4 µM
[25]
  TGI: 1940 nM
[26]
  TGI: 3.59 µM
[27]
  TGI: 1560 nM
[28]
  TGI: 942 nM
[29]
  TGI: 5.3 µM
[30]
  TGI: 7.26 µM
[31]
  TGI: 1570 nM
[32]
  TGI: 7.95 µM
[33]
  TGI: 6.67 µM
[34]
  TGI: 6.01 µM
[35]
  TGI: 1920 nM
[36]
  TGI: 2370 nM
[37]
  TGI: > 100 µM
[38]
  TGI: 12.8 µM
[39]
  TGI: 3.27 µM
[40]
  TGI: 20.2 µM
[41]
  TGI: 2000 nM
[42]
  TGI: 2040 nM
[43]
  TGI: 5.39 µM
[44]
  TGI: 3.14 µM
[45]
  TGI: 2700 nM
[46]
  TGI: 9.07 µM
[47]
  TGI: 8.43 µM
[48]
  TGI: 2.02 µM
[49]
  TGI: 4.26 µM
[50]
  TGI: 2190 nM
[51]
  TGI: 2040 nM
[52]
  TGI: 7.07 µM
[53]
  TGI: 8.51 µM

## O=C(O)/C=C/c1ccc2c(c1)CC1(Cc3ccccc3C1)C2
[1]
  TGI: > 100 µM
[2]
  TGI: 87.7 µM
[3]
  TGI: > 100 µM
[54]
  TGI: > 100 µM
[4]
  TGI: > 100 µM
[5]
  TGI: > 100 µM
[6]
  TGI: > 100000 nM
[7]
  TGI: > 100000 nM
[8]
  TGI: > 100000 nM
[9]
  TGI: > 100 µM
[10]
  TGI: > 100000 nM
[11]
  TGI: > 100000 nM
[12]
  TGI: > 100 µM
[13]
  TGI: 90.5 µM
[14]
  TGI: > 100 µM
[17]
  TGI: 52.3 µM
[18]
  TGI: > 100 µM
[55]
  TGI: > 100 µM
[19]
  TGI: 62.3 µM
[20]
  TGI: > 100 µM
[21]
  TGI: > 100000 nM
[22]
  TGI: > 100 µM
[23]
  TGI: > 100 µM
[24]
  TGI: > 100 µM
[25]
  TGI: > 100000 nM
[26]
  TGI: > 100 µM
[27]
  TGI: > 100000 nM
[56]
  TGI: 99.4 µM
[28]
  TGI: > 100000 nM
[30]
  TGI: > 100 µM
[31]
  TGI: > 100000 nM
[32]
  TGI: > 100 µM
[33]
  TGI: > 100 µM
[35]
  TGI: > 100000 nM
[57]
  TGI: > 100 µM
[36]
  TGI: > 100000 nM
[37]
  TGI: > 100 µM
[38]
  TGI: > 100 µM
[39]
  TGI: > 100 µM
[41]
  TGI: > 100000 nM
[42]
  TGI: > 100000 nM
[43]
  TGI: > 100 µM
[44]
  TGI: > 100 µM
[45]
  TGI: > 100000 nM
[47]
  TGI: > 100 µM
[48]
  TGI: 51.4 µM
[49]
  TGI: > 100 µM
[50]
  TGI: > 100000 nM
[51]
  TGI: > 100000 nM
[53]
  TGI: > 100 µM
